Results on two molecules are retold here after US20030215787A1, “Modulators of the CLC-7 chloride channel and methods for their identification and use in the treatment and prevention of osteoporosis and related disease states” (priority 2002, published 2003).

One assay deals with mature osteoclasts. The conditions noted are these: known non-specific chloride channel inhibitor; cited from earlier work.
Another assay deals with Raw264.7 cells. The assay is described as follows: RNAi transfection and bone resorption (bovine cortical bone particles, C-telopeptide Crosslaps ELISA). The assay is classed as cell-based, mouse. To be noted: 100 ng/ml RANKL, day 7, FIG. 2. How it is done: For RNAi transfection and bone resorption, the experiment was performed as follows: 1×10^4 Raw264.7 cells were seeded per 48 well and were cultured for 4 days with 100 ng/ml RANKL. The RNAi reagent was obtained from Sequitur. On day 4, the cells were transfected with 150 nM RNAi and 2 μg/ml lipofectamine overnight. The next day, the medium was replaced and 10 mg of powered bovine cortical bone particles (PelFreeze, Inc) were distributed into each well (James, I. E., et al. (1999) J. Bone Miner. Res., 14:1562-9). The particles were resuspended in […] of tissue culture media and incubated at 4° C. for 24 h storage. 200 μl bone particles were added to the precultured cells. The bone particles were allowed to settle for 10 min, and the cells were cultured for another 48 h at which time 100 μl of the supernatant was removed for the C-telopeptide Crosslaps™ ELISA analysis according to the manufacturer's instructions (Nordic Bioscience/Denmark). The absorbance was measured at 450 nm (Molecular Devices, Sunnyvale, Calif.).

With `O=C(O)c1cccnc1Nc1cccc(C(F)(F)F)c1` [niflumic acid], the “acidification of mature osteoclasts” value in the assay with mature osteoclasts is reported as “inhibits the acidification”.

B1: RANKL: recombinant soluble RANKL: extracellular domain of human RANKL (amino acids 158-317) fused to glutathione-S-transferase, expressed in E. coli (protein, UniProt O14788 158-317, looked up, fragment)
chain: SKLEAQPFAHLTINATDIPSGSHKVSLSSWYHDRGWAKISNMTFSNGKLIVNQDGFYYLYANICFRHHETSGDLATEYLQLMVYVTKTSIKIPSSHTLMKGGSTKYWSGNSEFHFYSINVGGFFKLRSGEEISIEVSNPSLLDPDQDATYFGAFKVRDID
modifications: extracellular domain GST fusion
notes: recombinant soluble RANKL: extracellular domain of human RANKL (amino acids 158-317) fused to glutathione-S-transferase, expressed in E. coli
B1: the “increase of bone resorption” value with Raw264.7 cells stood at 2.2 fold.
